According to patent US10080807B2 (LIPOMEDIX PHARMACEUTICALS LTD., priority 2014, dated 2018):

Assays:
[1] = test system: C26 (colon carcinoma) mouse tumor model; experiment: Anti-tumor effect in colon carcinoma tumor model (Example 6); assay type: in vivo; conditions: C26 ip in BALB/c mice; gemcitabine 100 mg/kg ip or paclitaxel 15 mg/kg ip days 5, 8, 12, 15, alone or with prodrug 30 mg/kg iv; 45 days
From the text: C26 (colon carcinoma) mouse tumor model was used by injecting BALB/c F intraperitoneally with 1 million tumor cells.

[2] = test system: N87 human gastric tumor model; conditions: N87 in footpad of nude mice; mitomycin C 5 mg/kg iv or prodrug 35 mg/kg iv days 6, 13; paclitaxel 15 mg/kg ip days 6, 10, 13, 17; mice with unacceptable toxicity removed
Procedure: An N87 human gastric tumor model was selected, and established by inoculating N87 tumor cells into the footpad of nude mice via subcutaneous (sc) injection. The day of sc injection with tumor cells was defined as study day zero.
The tumor size of the animals in each treatment group was measured.

[3] = test system: subcutaneous 4T1 breast mouse tumor model; conditions: day 5 iv; mitomycin C 6 mg/kg; prodrug 40 mg/kg; combination prodrug 30 mg/kg + liposome-entrapped doxorubicin 8 mg/kg; median tumor size
From the text: A subcutaneous 4T1 breast mouse tumor model was selected, and established by inoculating tumor cells subcutaneously into BALB/c f mice. The day of sc injection with tumor cells was defined as study day zero.

[4] = test system: human A375 melanoma subcutaneous tumor model; conditions: prodrug 25 mg/kg iv days 11, 18; paclitaxel 15 mg/kg ip days 11, 14, 18, 21; alone or combined
Procedure: A human A375 melanoma subcutaneous tumor model was selected, and established by inoculating tumor cells into nude mice via subcutaneous (sc) injection. The day of sc injection with tumor cells was defined as study day zero.
The tumor size of the animals (n=6) in each treatment group was measured, and the median tumor size (in mm) is shown in FIG. 6 as a function of days post tumor inoculation.

[5] = test system: N87 human gastric tumor model; experiment: Anti-tumor effect in gastric tumor model (Example 7); assay type: in vivo
From the text: An N87 human gastric tumor model was selected, and established by inoculating 10^6 N87 tumor cells into the footpad of nude mice via subcutaneous (sc) injection. The day of sc injection with tumor cells was defined as study day zero.

Structure (SMILES) | survival (in words) [1] | tumor size (in words) [2] | tumor growth (in words) [3] | tumor growth (in words) [4] | animals tumor free at observation day 50 ([5]; N87 in footpad of nude mice, prodrug 25 mg/kg iv days 5, 12, paclitaxel 15 mg/kg ip days 5, 8, 12, 15) | reduction in tumor volume ([5]; individual tumor volumes measured to 48 days post inoculation (FIGS. 5C-5H))
Nc1ccn([C@@H]2O[C@H](CO)[C@@H](O)C2(F)F)c(=O)n1 [gemcitabine, 2′-deoxy-2′,2′-difluoro-cytidine] | fared poorly, with nearly all animals failing to survive the study period | – | – | – | – | –
CO[C@@]12[C@H](COC(N)=O)C3=C(C(=O)C(C)=C(N)C3=O)N1C[C@@H]1N[C@@H]12 [mitomycin C] | – | continuous increase in tumor size | continued growth in tumor size | – | – | –
CC(=O)O[C@H]1C(=O)[C@@]2(C)[C@H]([C@H](OC(=O)c3ccccc3)[C@]3(O)C[C@H](OC(=O)[C@H](O)[C@@H](NC(=O)c4ccccc4)c4ccccc4)C(C)=C1C3(C)C)[C@]1(OC(C)=O)CO[C@@H]1C[C@@H]2O [paclitaxel] | fared poorly, with nearly all animals failing to survive the study period | continuous increase in tumor size | – | either a shorter plateau period of attenuated tumor growth or an increase in tumor growth sooner than animals treated with the combination therapy | two of eight animals | Reduction in tumor volume was not observed
